Read-outs that look alike come from different tables or passages of the source. *1 amine or outer side, *2 acyl side, *3 side chain or, on linkers, in order; H or OH if unused. Where a SMILES comes first, the peptide text is derived from it. Bridges are numbered along the chain shown (N, C = ends). [ ]: non-standard residue; d: D form. The star is where a group is joined. hTyr(3S-OH,4S-OH,3'-OSO3H) = N[C@H](C(=O)O)[C@H](O)[C@@H](O)c1ccc(O)c(OS(=O)(=O)O)c1; Orn(4R-OH,5R-OH) = O=C([C@H](C[C@@H](O)[C@@H](O)N[*:3])N[*:1])[*:2]; Pro(3S-OH,4S-Me) = C[C@H]1CN[C@H](C(=O)O)[C@H]1O; X1 = CCCCCOc1ccc(-c2cc(-c3ccc(C(=O)*)cc3)no2)cc1; Gln(3R-OH) = NC(=O)C[C@@H](O)[C@H](N)C(=O)O; Hyp = O=C(O)[C@@H]1C[C@@H](O)CN1; Nle = CCCC[C@H](N)C(=O)O

The inhibition is the drop in the measured response relative to a control, in per cent.

The experiment has as its target BTK (Homo sapiens, UniProt Q06187). Nature of the experiment: biochemical.
Setting [1] is: read-out: BTK inhibition (%), 0.75 uM BTK, […] probe 3l, 15 min preincubation.

Chain of BTK (Q06187 402-655 limits assumed): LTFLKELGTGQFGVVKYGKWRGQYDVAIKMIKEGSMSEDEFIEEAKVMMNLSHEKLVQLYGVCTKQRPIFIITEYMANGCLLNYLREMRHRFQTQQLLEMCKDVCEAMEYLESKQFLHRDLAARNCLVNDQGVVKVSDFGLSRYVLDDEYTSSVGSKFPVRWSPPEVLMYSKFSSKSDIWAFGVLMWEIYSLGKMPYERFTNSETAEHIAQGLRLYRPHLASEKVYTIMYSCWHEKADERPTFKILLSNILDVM

For the molecule `CCCCCOc1ccc(-c2cc(-c3ccc(C(=O)N[C@H]4C[C@@H](O)[C@@H](O)NC(=O)[C@@H]5[C@@H](O)[C@@H](C)CN5C(=O)[C@H]([C@H](O)CC(N)=O)NC(=O)[C@H]([C@H](O)[C@@H](O)c5ccc(O)c(OS(=O)(=O)O)c5)NC(=O)[C@@H]5C[C@@H](O)CN5C(=O)[C@H]([C@@H](C)O)NC4=O)cc3)no2)cc1` [PCM-0215341] (X1-[Orn(4R-OH,5R-OH)]T[Hyp][hTyr(3S-OH,4S-OH,3'-OSO3H)][Gln(3R-OH)][Pro(3S-OH,4S-Me)]; lactam 1-C), the inhibition at 10 µM under setting [1] came out at 3.4%.
For the molecule `CO[C@H]1C[C@@H]2CC[C@@H](C)[C@@](O)(O2)C(=O)C(=O)N2CCCC[C@H]2C(=O)O[C@H]([C@H](C)C[C@@H]2CC[C@H](n3cnnn3)[C@H](OC)C2)CC(=O)[C@H](C)/C=C(\C)[C@@H](O)[C@@H](OC)C(=O)[C@H](C)C[C@H](C)/C=C/C=C/C=C/1C` [PCM-0215342], the inhibition at 10 µM under setting [1] was 3.4%.
Turning to `O=C(O)/C(S)=C/c1c[nH]c2ccc(F)cc12` [PCM-0215343], the inhibition at 10 µM under setting [1] amounted to 35.5%.
As for `Cn1c2ccccc2c2c3c(c4c5ccccc5n(CCC#N)c4c21)CNC3=O` [PCM-0215344], under setting [1], the inhibition at 10 µM is 5.5%.
On to `COc1ccc(N(C(=O)Oc2c(C)cccc2C)c2ccnc(Nc3ccc(N4CCN(C)CC4)cc3)n2)c(OC)c1` [PCM-0215345], for which the inhibition at 10 µM (read-out: BTK inhibition (%)) is 24.1%.
For the molecule `Cc1cc(C(N)=O)ccc1-n1c(CCC(=O)O)ccc1-c1ccc(-n2ccnc2)cc1` [PCM-0215346], the inhibition at 10 µM under setting [1] turned out to be 6.9%.
Regarding `CC(C)C[C@H](NP(=O)(O)O[C@@H]1O[C@@H](C)[C@H](O)[C@@H](O)[C@H]1O)C(=O)N[C@@H](Cc1c[nH]c2ccccc12)C(=O)O` [PCM-0215347], the inhibition at 10 µM under setting [1] amounted to 14.7%.
As for `CC(C)(C)C(=O)Nc1ccc2c(c1)C(=O)C(=O)c1ccccc1-2` [PCM-0215348], the inhibition at 10 µM under setting [1] is 10.8%.
With `Cc1[nH]c2ccccc2c1C1=C(NCCc2ccc(F)cc2)C(=O)N(C)C1=O` [PCM-0215349], the inhibition at 10 µM under setting [1] worked out at 51.7%.
As to `c1ccc(Cn2c(-c3ccc(OC[C@H](C4CCNCC4)n4c(-c5ccccc5)nc5ccccc54)cc3)nc3ccccc32)cc1` [PCM-0215350], the inhibition at 10 µM under setting [1] was 86.5%.
Consider `Cc1cc(/C=C2/SC(=S)NC2=O)c(C)n1-c1cccnc1` [PCM-0215351], for which the inhibition at 10 µM under setting [1] is 10.8%.
On the same count and under the same terms, under `COc1cccc(-c2cc(F)ccc2[C@H]2Cc3nc(N)nc(C)c3C(=O)N2)n1` [PCM-0215352] stands 2.3%; under `C[C@@H](O)[C@H]1C(=O)N2C(C(=O)[O-])=C(SC3Cn4cnc[n+]4C3)[C@H](C)[C@H]12` (stereo partly shown) [PCM-0215353], -18.7%.
Regarding `CCC(C)CC(C)CCCCCCCCC(=O)N[C@H]1C[C@@H](O)[C@@H](NCCN)NC(=O)[C@@H]2[C@@H](O)CCN2C(=O)[C@H]([C@H](O)CCN)NC(=O)[C@H]([C@H](O)[C@@H](O)c2ccc(O)cc2)NC(=O)[C@@H]2C[C@@H](O)CN2C(=O)[C@H]([C@@H](C)O)NC1=O` (stereo partly shown) [PCM-0215354], the inhibition at 10 µM under setting [1] was 11.1%.
Still for that read-out and setting: next, `CCOC(=O)NCCCC(=O)NCCc1ccccc1` [PCM-0215356]: -17%.
Still for that read-out and setting: next, `CN1CCN(c2ccc(OC(F)(F)F)c(Nc3ncc4c(n3)-c3c(c(C(N)=O)nn3CCO)CC4)c2)CC1` [PCM-0215357]: -26.9%; `Cc1cc2c(C(=O)NC[C@H](C)c3ccccc3)c(O)c(O)cc2c(O)c1-c1c(C)cc2c(C(=O)NC[C@H](C)c3ccccc3)c(O)c(O)cc2c1O` [PCM-0215358]: 113%; `CNc1nc(Nc2cnn([C@H]3CCN(C4COC4)C[C@@H]3F)c2Cl)ncc1C(F)(F)F` [PCM-0215360]: 0%.
As to `O=C(Nc1nc2cccc(-c3ccc(CN4CCS(=O)(=O)CC4)cc3)n2n1)C1CC1` [PCM-0215361], the inhibition at 10 µM under setting [1] was 31.7%.
Regarding `COC(=O)CC[C@H](NC(=O)[C@H](CC(=O)OC)NC(=O)OCc1ccccc1)C(=O)N[C@H](C(=O)N[C@@H](CC(=O)OC)C(=O)CF)C(C)C` [PCM-0215362], under setting [1], the inhibition at 10 µM turned out to be 15.4%.
Still for that read-out and setting: next, `CC[C@H]1OC(=O)[C@H](C)[C@@H](O[C@H]2C[C@@](C)(OC)[C@@H](O)[C@H](C)O2)[C@H](C)[C@@H](O[C@@H]2O[C@H](C)C[C@H](N(C)C)[C@H]2O)[C@](C)(O)C[C@@H](C)C(=O)[C@H](C)[C@H]2OC(=O)O[C@@]21C` [PCM-0215364]: -20.8%; `CN1CC[C@@H](NC(=O)Nc2ccc(C#N)cc2)C[C@@H]1c1nc2ccccc2[nH]1` [PCM-0215365]: -3.9%.
Same read-out and setting: under `CN[C@@H](C)C(=O)N[C@H](C(=O)N1CCC[C@H]1c1nc(C(=O)c2ccc(F)cc2)cs1)C1CCCCC1` [PCM-0215366] stands -11.6%.
In the case of `C=CC(=O)N1CCN(C(=O)CNc2cc(I)c(Cl)cc2O)CC1` [PCM-0215367], under setting [1], the inhibition at 10 µM was 84.9%.
As for `COc1cccc2c1c(O)c(C(=O)N(C)c1ccc(C(F)(F)F)cc1)c(=O)n2C` [PCM-0215368], the inhibition at 10 µM under setting [1] is -27.8%.
For the molecule `N#C/C(=C\c1ccc(-c2cc(Cl)ccc2Cl)o1)C(=O)Nc1cccc2ncccc12` [PCM-0215369], the inhibition at 10 µM under setting [1] was 22.4%.
Take `CCCCCCCCCCCCCCCc1cccc(O)c1C(=O)O` [PCM-0215370]: the inhibition at 10 µM under setting [1] is -19.3%.
The same measure, in the same setting: next, `CC1=CC(=O)CC(C)(C)[C@@]1(O)/C=C/C(C)=C\C(=O)O` [PCM-0215371]: 9.3%; `Cc1ccc(NC(=O)Nc2cc(C(F)(F)F)ccc2F)cc1Nc1ccc2c(c1)NC(=O)/C2=C\c1ccc[nH]1` [PCM-0215372]: 116%.
On to `CN1CCN(Cc2ccc(NC(=O)Cc3ccc(Oc4cc(NC(=O)C5CC5)ncn4)cc3)cc2C(F)(F)F)CC1` [PCM-0215373], for which the inhibition at 10 µM under setting [1] was found to be 26.3%.
`CCCC[C@@H](C=O)NC(=O)[C@H](CC(C)C)NC(=O)[C@H](CC(C)C)NC(C)=O` [PCM-0215374] (Ac-Leu-Leu-[Nle]-aldehyde): under setting [1], the inhibition at 10 µM stood at 18.5%.
In the case of `C[C@@H](Oc1ccc2[nH]nc(/C=C/c3cnn(CCO)c3)c2c1)c1c(Cl)cncc1Cl` [PCM-0215376], the inhibition at 10 µM under setting [1] worked out at 101%.
As for `CN1CCN(Cc2ccc(-c3cnc4[nH]cc(-c5ccc6[nH]ccc6c5)c4c3)cc2)CC1` [PCM-0215377], under setting [1], the inhibition at 10 µM came to 111%.
As for `O=C(O)CSc1cc(NS(=O)(=O)c2ccc(Br)cc2)c2ccccc2c1O` [PCM-0215378], the inhibition at 10 µM under setting [1] was determined as 51.7%.
The same measure, in the same setting: next, `CC(C)c1cc2c(N3CCN(C4=NCC(C)(C)S4)CC3)ncnc2s1` [PCM-0215379]: -7.7%; `Cc1c(Cl)c(OCC(=O)N2CCN(C)CC2)nc2sc(C(=O)NC3CC3)c(N)c12` [PCM-0215380]: -10.8%; `N#Cc1ccc(-c2csc(NN=C3CCCC3)n2)cc1` [PCM-0215381]: 43.2%.
Turning to `Cc1cccc(-c2[nH]c(CNc3ccccc3F)nc2-c2ccc3ncnn3c2)n1` [PCM-0215382], the inhibition at 10 µM under setting [1] was -1.5%.
For `O=C(O)c1ccccc1C(=O)Nc1ccc(-c2ccccc2)cc1` [PCM-0215383], under setting [1], the inhibition at 10 µM worked out at 13.9%.
As for `COc1ccc(C2=N[C@H](c3ccc(Cl)cc3)[C@H](c3ccc(Cl)cc3)N2C(=O)N2CCNC(=O)C2)c(OC(C)C)c1` [PCM-0215386], under setting [1], the inhibition at 10 µM was -27.8%.
On the same count and under the same terms, next, `CN1CCN(Cc2ccc(NC(=O)Nc3ccc(Oc4cc(NC(=O)C5CC5)ncn4)cc3)cc2C(F)(F)F)CC1` [PCM-0215388]: 79.5%; `CCS(=O)(=O)N1CCN(c2ccc(Nc3ncc(C(N)=O)c(NC4CC4)n3)cc2)CC1` [PCM-0215389]: 85.5%.
Same read-out and setting: under `CC[C@H]1[C@@H](O)[C@@H]2[C@H](CC[C@]3(C)[C@@H]([C@H](C)CCC(=O)O)CC[C@@H]23)[C@@]2(C)CC[C@@H](O)C[C@@H]12` [PCM-0215390] stands 2.3%; under `COc1cc(C(=O)O)ccc1NC(=O)[C@@H]1N[C@@H](CC(C)(C)C)[C@](C#N)(c2ccc(Cl)cc2F)[C@H]1c1cccc(Cl)c1F` [PCM-0215391], 27.8%.
Take `O=C(Nc1ccc([N+](=O)[O-])cc1O)Nc1ccccc1Br` [PCM-0215392]: the inhibition at 10 µM under setting [1] was determined as 73.1%.
In the case of `CCCc1cc2c(N3CCN(C4=NCC(C)(C)S4)CC3)ncnc2s1` [PCM-0215393], under setting [1], the inhibition at 10 µM is -24.7%.
On to `C[C@H]1Oc2cc(cnc2N)-c2c(nn(C)c2C#N)CN(C)C(=O)c2ccc(F)cc21` [PCM-0215394], for which, under setting [1], the inhibition at 10 µM was found to be 17.9%.
`COC(=O)N[C@H](C(=O)N1CC2(CC2)C[C@H]1c1ncc(-c2ccc3c(c2)C(F)(F)c2cc(-c4ccc5nc([C@@H]6[C@H]7CC[C@H](C7)N6C(=O)[C@@H](NC(=O)OC)C(C)C)[nH]c5c4)ccc2-3)[nH]1)C(C)C` [PCM-0215396]: under setting [1], the inhibition at 10 µM was 74.9%.
Turning to `O=C(/C=C\n1cnc(-c2cc(C(F)(F)F)cc(C(F)(F)F)c2)n1)NNc1ccccn1` [PCM-0215397], the inhibition at 10 µM under setting [1] is -19.3%.
As for `COc1ccc(OC)c(C2C(C#N)=C(N)Oc3n[nH]c(-c4ccc5ccccc5c4)c32)c1` (stereo not shown) [PCM-0215398], the inhibition at 10 µM under setting [1] amounted to 1.5%.
In the case of `C/C(=N\NC(=O)c1cccc(S(=O)(=O)N2CCOCC2)c1)c1cc(Cl)ccc1O` [PCM-0215399], the inhibition at 10 µM under setting [1] came to 25.5%.
As to `CC(=O)N1c2ccc(-c3ccc(C(=O)O)cc3)cc2[C@H](Nc2ccc(Cl)cc2)C[C@@H]1C` [PCM-0215400], under setting [1], the inhibition at 10 µM amounted to 31.7%.
Regarding `CN[C@@H]1[C@@H](O)[C@@H](O[C@@H]2[C@@H](O)[C@H](O[C@H]3O[C@H](CN)[C@@H](O)[C@H](O)[C@H]3O)[C@@H](N)C[C@H]2NC(=O)[C@@H](O)CN)OC[C@]1(C)O` [PCM-0215401], the inhibition at 10 µM under setting [1] stood at 4.3%.
For `CCC(CC)n1ccc2c(C(=O)NCc3c(C)cc(C)[nH]c3=O)cc(C#N)cc21` [PCM-0215402], the inhibition at 10 µM under setting [1] stood at 1.5%.
Consider `COC(=O)c1ccc2c(c1)nc(NC(=O)c1ccccc1)n2CCCc1ccccc1` [PCM-0215403], for which the inhibition at 10 µM under setting [1] was determined as 0%.
Consider `COc1ccc(C(=O)CC2(O)C(=O)Nc3c(Cl)ccc(Cl)c32)cc1` (stereo not shown) [PCM-0215405], for which, under setting [1], the inhibition at 10 µM came out at 8.5%.
For the molecule `c1nc2nc(Nc3ccc(N4CCOCC4)cc3)nc(NC3CCCCC3)c2[nH]1` [PCM-0215406], under setting [1], the inhibition at 10 µM stood at 101%.
`CC(C)(C)OC(=O)Nc1ccc(-c2cc(C(=O)NCCCCCCC(=O)NO)no2)cc1` [PCM-0215407]: the inhibition at 10 µM under setting [1] is 20.1%.
